One data set has as its system Staphylococcus aureus. The data set is classed as cell-based.
In the next data set the test system is Salmonella typhimurium. The data set is classed as cell-based.
The subject of a further data set is Pseudomonas aeruginosa. Format: cell-based.
The test system of the next data set is Staphylococcus epidermis. The data set is classed as cell-based.
A further data set has as its system human red blood cells. As to the kind of experiment: Haemolytic activity. The note with it: 0.5% human RBC, 1 h 37°C, OD 414 nm, 100% = 1% Triton X-100, triplicate. The data set is classed as cell-based.
The test system of another data set is Escherichia coli. The data set is classed as cell-based.
[1] abbreviates: Staphylococcus aureus, Mueller Hinton broth, acetic acid/BSA, 1×10^5 bacteria, 37°C 16 h, read at 600 nm.
[2] abbreviates: Salmonella typhimurium, Mueller Hinton broth, acetic acid/BSA, 1×10^5 bacteria, 37°C 16 h, read at 600 nm.
The mark [3] stands for this setting: Pseudomonas aeruginosa, Mueller Hinton broth, acetic acid/BSA, 1×10^5 bacteria, 37°C 16 h, read at 600 nm.
[4] abbreviates: Staphylococcus epidermis, Mueller Hinton broth, acetic acid/BSA, 1×10^5 bacteria, 37°C 16 h, read at 600 nm.
[5] abbreviates: Escherichia coli, Mueller Hinton broth, acetic acid/BSA, 1×10^5 bacteria, 37°C 16 h, read at 600 nm.

In brackets after ≈: the same amount, converted by molar mass. Several values for one entry are separate records, joined by “and”; a condition that tells them apart may be missing. Equal entries are not always repeated. Where two headings read alike, the source gives them in different places. Ends that are not written are not given here.

Experimental for Escherichia coli: (§1) The minimal inhibitory concentration (MIC) of each peptide against various bacteria was determined using a standardized dilution method according to NCSLA guidelines [35]. Overnight colonies of E. coli, Pseudomonas aeruginosa, Salmonella typhimurium, Staphylococcus epidermis and Staphylococcus aureus, were suspended to a turbidity of 0.5 OD units and further diluted in Mueller-Hinton broth (MHB). […] Ten microliters of each concentration was added to each corresponding well of a 96-well polypropylene microtiter plate and 1×10^5 bacteria in the volume of 90 µL. The plate was incubated at 37°C for 16 h and then read at 600 nm with a Synergy H1 hybrid reader (Biotek).
Experimental for Pseudomonas aeruginosa: as §1
Experimental for Salmonella typhimurium: as §1
Experimental for Staphylococcus aureus: as §1
Experimental for Staphylococcus epidermis: as §1
Experimental for human red blood cells: The peptide's haemolytic activities were determined using human red blood cells (RBCs; Research Blood Components, LLC) in 96-well polypropylene microtiter plates. One hundred µl of 0.5% RBC suspension was added to an equal volume of a peptide (8–256 µg/ml). After 1 h at 37°C, plates were centrifuged at 1420×g for 5 min and the optical density of the supernatant was measured at 414 nm with a Synergy H1 hybrid reader (Biotek). Values for 0% and 100% lysis were obtained by adding PBS or Triton X-100 (1%; final concentration) to RBCs, respectively. All assays were performed in triplicate and the values of percent lysis were within a 1% standard deviation range.

On to `CC[C@H](C)[C@H](NC(=O)[C@H](CCCCN)NC(=O)[C@H](CCC(=O)O)NC(=O)[C@H](CCCCN)NC(=O)[C@H](CO)NC(=O)[C@H](CCCCN)NC(=O)[C@H](CCCNC(=N)N)NC(=O)[C@H](Cc1ccccc1)NC(=O)[C@H](Cc1ccccc1)NC(=O)[C@H](CC(=O)O)NC(=O)CNC(=O)[C@H](CC(C)C)NC(=O)[C@@H](N)CC(C)C)C(=O)NCC(=O)N[C@@H](CCCCN)C(=O)N[C@@H](CCC(=O)O)C(=O)N[C@@H](Cc1ccccc1)C(=O)N[C@@H](CCCCN)C(=O)N[C@@H](CCCNC(=N)N)C(=O)N[C@H](C(=O)N[C@H](C(=O)N[C@@H](CCC(N)=O)C(=O)N[C@@H](CCCNC(=N)N)C(=O)N[C@H](C(=O)N[C@@H](CCCCN)C(=O)N[C@@H](CC(=O)O)C(=O)N[C@@H](Cc1ccccc1)C(=O)N[C@@H](CC(C)C)C(=O)N[C@@H](CCCNC(=N)N)C(=O)N[C@@H](CC(N)=O)C(=O)N[C@@H](CC(C)C)C(=O)N[C@H](C(=O)N1CCC[C@H]1C(=O)N[C@@H](CCCNC(=N)N)C(=O)N[C@H](C(=O)N[C@@H](CCC(=O)O)C(=O)N[C@@H](CO)C(=O)O)[C@@H](C)O)C(C)C)[C@@H](C)CC)C(C)C)[C@@H](C)CC` [LL-37, reference compound], for which the MIC in the data set on Staphylococcus aureus (setting [1]) was greater than 128 µg/mL; in the data set on Salmonella typhimurium (setting [2]), 2 µg/mL (≈ 0.445 µM); in the data set on Pseudomonas aeruginosa (setting [3]), 8 µg/mL (≈ 1.78 µM); in the data set with Staphylococcus epidermis (setting [4]) it was greater than 128 µg/mL; against Escherichia coli (setting [5]), 4 µg/mL (≈ 0.89 µM). The Hemolytic activity stood at 1.7% with human red blood cells (peptide 16 µg/ml); 4.1% in the data set on human red blood cells (peptide 32 µg/ml); 10.4% with human red blood cells (peptide 64 µg/ml); 20% in the data set on human red blood cells (peptide 128 µg/ml); 20% with human red blood cells (peptide 256 µg/ml).

Consider “AMAYLAKDNLGEKITEVITILLNRLTDRLEKYAG [FhHDM-1p2]”, for which the MIC with Staphylococcus aureus (setting [1]), with Salmonella typhimurium (setting [2]), with Pseudomonas aeruginosa (setting [3]), in the data set with Staphylococcus epidermis (setting [4]) and in the data set on Escherichia coli (setting [5]) was greater than 128 µg/mL in each case. Moreover, the Hemolytic activity in the data set with human red blood cells (peptide 8 µg/ml) is listed as 0%; in the data set with human red blood cells (peptide 16 µg/ml) it was 0%; in the data set with human red blood cells (peptide 32 µg/ml), 1.8%; in the data set with human red blood cells (peptide 64 µg/ml), 2.6%; in the data set with human red blood cells (peptide 128 µg/ml) it was 5.4%; in the data set on human red blood cells (peptide 256 µg/ml), 11.4%.

With GGLRSLGRKILRAWKKYGPIIVPIIRIG [BMAP-28], the Hemolytic activity is 50% and 70%. The compound further yielded an MIC with Staphylococcus aureus (16 h) of 8 µg/mL. The minimal inhibitory concentration (MIC) against Salmonella typhimurium (murium, 16 h) came out at 4 µg/mL. The compound further had a minimum inhibitory concentration (MIC) in the data set with Pseudomonas aeruginosa (16 h) of 4 µg/mL. In the data set with Staphylococcus epidermis (16 h), the MIC amounted to 4 µg/mL. Also, the minimum inhibitory concentration (MIC) with Escherichia coli (16 h) was found to be 1 µg/mL.

As to “ISRLAGLLRKGGEKIGEKLKKIGQKIKNFFQKLVPQPE [CRAMP]”, the MIC is greater than 128 µg/mL against Staphylococcus aureus (16 h); 4 µg/mL in the data set on Salmonella typhimurium (murium, 16 h); 4 µg/mL in the data set with Pseudomonas aeruginosa (16 h); greater than 128 µg/mL in the data set on Staphylococcus epidermis (16 h); 2 µg/mL in the data set with Escherichia coli (16 h).

For the compound “MDKYIRKEDLGMKMLDVAKILGRRIEKRMEYIAKK [Sm16-p73]”, the minimal inhibitory concentration (MIC) against Staphylococcus aureus (setting [1]), against Salmonella typhimurium (setting [2]), against Pseudomonas aeruginosa (setting [3]), in the data set with Staphylococcus epidermis (setting [4]) and against Escherichia coli (setting [5]) was greater than 128 µg/mL in each case. Further, the Hemolytic activity with human red blood cells (peptide 8 µg/ml), in the data set on human red blood cells (peptide 16 µg/ml), in the data set on human red blood cells (peptide 32 µg/ml), in the data set on human red blood cells (peptide 64 µg/ml), with human red blood cells (peptide 128 µg/ml) and in the data set on human red blood cells (peptide 256 µg/ml) was 0% in each case.

In general, MIC refers to the lowest concentration that inhibits growth of the organism. Low values mean inhibition by little substance, high ones a need for much substance.

Values taken from article PMC3708846, “Cathelicidin-like Helminth Defence Molecules (HDMs): Absence of Cytotoxic, Anti-microbial and Anti-protozoan Activities Imply a Specific Adaptation to Immune Modulation” (PLoS Neglected Tropical Diseases, 2013).
